Earlier results in patent publication US20230071314A1, “POLYMERIC COMPOSITIONS FOR SUSTAINED DELIVERY OF VMAT2 INHIBITORS” (Foresee Pharmaceuticals Co., Ltd., priority 2021, published 2023).
Read-outs that look alike come from different tables or passages of the source.

Key:
dopamine D2 = dopamine D2 (Homo sapiens, UniProt P14416); conditions: Harriott et al. 2018; read-out: off-target binding affinity to dopamine D2
[1] = target: serotonin 5-HT7 receptors (Homo sapiens, UniProt P34969); conditions: Harriott et al. 2018; read-out: off-target binding affinity to serotonin 5-HT7 receptors
Chain of serotonin 5-HT7 receptors (P34969 whole entry): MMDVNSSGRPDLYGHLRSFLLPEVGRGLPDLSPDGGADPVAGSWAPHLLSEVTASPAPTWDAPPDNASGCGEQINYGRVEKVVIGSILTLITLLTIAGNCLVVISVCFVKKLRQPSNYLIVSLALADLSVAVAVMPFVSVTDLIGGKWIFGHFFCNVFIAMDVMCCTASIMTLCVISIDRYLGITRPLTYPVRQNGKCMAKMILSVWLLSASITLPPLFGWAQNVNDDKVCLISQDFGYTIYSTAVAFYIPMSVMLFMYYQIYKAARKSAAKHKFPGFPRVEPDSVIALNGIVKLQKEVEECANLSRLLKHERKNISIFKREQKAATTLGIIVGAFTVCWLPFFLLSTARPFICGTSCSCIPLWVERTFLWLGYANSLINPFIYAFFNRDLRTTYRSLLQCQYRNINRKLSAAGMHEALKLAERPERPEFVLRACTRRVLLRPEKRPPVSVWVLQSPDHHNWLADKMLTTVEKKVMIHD

Chain of dopamine D2 (P14416 1-414 isoform P14416-2): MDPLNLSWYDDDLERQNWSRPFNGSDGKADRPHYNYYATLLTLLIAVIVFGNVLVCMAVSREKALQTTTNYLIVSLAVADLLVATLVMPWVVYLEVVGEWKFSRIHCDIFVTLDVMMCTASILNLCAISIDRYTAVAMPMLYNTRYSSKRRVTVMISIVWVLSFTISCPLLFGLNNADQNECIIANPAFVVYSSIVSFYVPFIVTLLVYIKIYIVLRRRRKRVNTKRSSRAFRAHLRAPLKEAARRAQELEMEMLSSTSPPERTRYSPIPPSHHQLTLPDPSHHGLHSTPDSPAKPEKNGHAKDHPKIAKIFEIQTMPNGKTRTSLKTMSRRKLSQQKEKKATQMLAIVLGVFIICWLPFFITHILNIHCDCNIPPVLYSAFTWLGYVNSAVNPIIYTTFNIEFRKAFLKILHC

Row | Compound | Ki (dopamine D2) | Ki [1] | increase of cumulative release (Ivermectin loading increased from 1% to 2%) | increase of cumulative release (Ivermectin loading increased from 1% to 4%)
1 | COc1cc2c(cc1OC)C1CC(O)C(CC(C)C)CN1CC2 [R,S,S-DHTBZ ((−)-β), [−]-β-dihydrotetrabenazine] | 53 nM | 5.9 nM | – | –
2 | COc1cc2c(cc1OC)C1CC(O)C(CC(C)C)CN1CC2 [S,S,S-DHTBZ ((−)-α), [−]-α-dihydrotetrabenazine] | 180 nM | 71 nM | – | –
3 | Ivermectin | – | – | 2.4-2.9 times | 3.1-3.7 times
